Results: patent US9220795B2, “Indole derivatives” (priority 2011, dated 2015)
pKi: −log10 of the molar value.

Experiments:
Wistar rat heart PBR = biological target: T1, Wistar rat heart PBR (Rattus norvegicus, UniProt P16257); experiment: In vitro potency assay: competition for binding to PBR against 0.3 nM [3H]PK-11195; conditions: non-radioactive analogues; vs 0.3 nM [3H]PK-11195; 15 minutes at 25° C.; 6 concentrations
T1 construct: from tissue; host or cells: Wistar rat heart
Description: Affinity for PBR was screened using a method adapted from Le Fur et al (Life Sci. 1983; USA 33: 449-57). Non-radioactive analogues of in vivo imaging agents of the invention were tested along with a non-radioactive analogue of a previous tetracyclic indole imaging agent (from co-pending patent application PCT/EP2009/062827; synthesis described in Example 17 below):
Each test compound (dissolved in 50 mM Tris-HCl, pH 7.4, 10 mM MgCl2 containing 1% DMSO) competed for binding to Wistar rat heart PBR against 0.3 nM [^3H] PK-11195. The reaction was carried out in 50 mM Tris-HCl, pH 7.4 10 mM MgCl2 for 15 minutes at 25° C.

[1] = In vivo biodistribution method; design: species or system Adult male Wistar rats; conditions: for Brain 2 min (% ID/g): 2 min after injection via lateral tail vein, 1-3 MBq, n=3; for % Activity in Brain = Parent @ 60 min: 60 min after injection; for OB 30 min (% ID/g): olfactory bulb, 30 min after injection; for OB: Str 30 min: ratio olfactory bulb to striatum at 30 min; for Str 2: 30 min: ratio striatum 2 min to 30 min
Description: Imaging agents of the invention were tested in an in vivo biodistribution model along with a previous tetracyclic imaging agent (from co-pending patent application PCT/EP2009/062827; synthesis described in Example 18 below).

SMILES	pKi (Wistar rat heart PBR)	Brain 2 min (% ID/g) [1] [% ID/g]	% Activity in Brain = Parent @ 60 min [1] [%]	OB 30 min (% ID/g) [1] [% ID/g]	OB: Str 30 min [1]	Str 2: 30 min [1]
CCN(CC)C(=O)C1Sc2ccccc2-c2c1c1cc(OC)ccc1n2CCF (racemic) [tetracyclic indole, (+−)-11-(2-[^18F]fluoroethyl)-8-methoxy-6,11-dihydro-5-thia-11-aza-benzo[a]fluorene-6-carboxylic acid diethyl amide, reference compound]	9.43					
CCN(CC)C(=O)C1Sc2ccccc2-c2c1c1cc(OC)ccc1n2CC[18F] (racemic) [tetracyclic indole, (+−)-11-(2-[^18F]fluoroethyl)-8-methoxy-6,11-dihydro-5-thia-11-aza-benzo[a]fluorene-6-carboxylic acid diethyl amide, reference compound]		0.32	96.00	0.31	2.07	1.73
CCN(CC)C(=O)C1CCCc2c1c1c(OC)cccc1n2CCF (stereo not drawn) [Imaging agent 5, 9-(2-[^18F]-Fluoro-ethyl)-5-methoxy-2,3,4,9-tetrahydro-1H-carbazole-4-carboxylic acid diethylamide]	8.63					
O=C(C1CCCc2c1c1ccccc1n2CCF)N1CCCCC1 (stereo not drawn) [Imaging agent 6, [9-(2-[^18F]-Fluoro-ethyl)-2,3,4,9-tetrahydro-1H-carbazol-4-yl]-piperidin-1-yl-methanone]	7.74					
CN(Cc1ccccc1)C(=O)C1CCCc2c1c1ccccc1n2CCF (stereo not drawn) [Imaging agent 7, 9-(2-[^18F]fluoro-ethyl)-2,3,4,9-tetrahydro-1H-carbazole-4-carboxylic acid benzyl-methyl-amide]	8.90					
CN(Cc1ccccc1)C(=O)C1CCCc2c1c1ccccc1n2CC[18F] (stereo not drawn) [Imaging agent 7, 9-(2-[^18F]fluoro-ethyl)-2,3,4,9-tetrahydro-1H-carbazole-4-carboxylic acid benzyl-methyl-amide]		0.55	81.28	0.34	3.40	4.70
CCN(CC)C(=O)C1CCCc2c1c1cc(F)ccc1n2CCF (stereo not drawn) [Imaging agent 9, 6-Fluoro-9-(2-[^18F]fluoro-ethyl)-2,3,4,9-tetrahydro-1H-carbazole-4-carboxylic acid diethylamide]	8.42					
CCN(CC)C(=O)C1CCCc2c1c1cc(F)ccc1n2CC[18F] (stereo not drawn) [Imaging agent 9, 6-Fluoro-9-(2-[^18F]fluoro-ethyl)-2,3,4,9-tetrahydro-1H-carbazole-4-carboxylic acid diethylamide]		0.56	84.30	0.41		
CCN(CC)C(=O)C1CCCc2c1c1c(F)cccc1n2CC[18F] (stereo not drawn) [Imaging agent 10, 5-Fluoro-9-(2-[^18F]fluoro-ethyl)-2,3,4,9-tetrahydro-1H-carbazole-4-carboxylic acid diethylamide]		0.50	92.70	0.51		
CCN(CC)C(=O)C1CC(C)Cc2c1c1ccccc1n2CCF (stereo not drawn) [Imaging agent 11, 9-(2-[^18F]-Fluoro-ethyl)-2-methyl-2,3,4,9-tetrahydro-1H-carbazole-4-carboxylic acid diethylamide]	8.67					
CCN(CC)C(=O)C1CC(C)Cc2c1c1ccccc1n2CC[18F] (stereo not drawn) [Imaging agent 11, 9-(2-[^18F]-Fluoro-ethyl)-2-methyl-2,3,4,9-tetrahydro-1H-carbazole-4-carboxylic acid diethylamide]		0.51	90.37	0.42	3.50	3.33
